Test system: gestating cows
Experiment: Clinical safety study (abortion, fetal toxicity) in gestating ruminants (Example 3)
Assay type: in vivo
Conditions: two injections at interval of 48 hours, 25 mcg/kg
Procedure: This study aims to show the absence of risks such as abortions and fetus toxicity during the use of cabergoline in gestating ruminants even in the case of an overdose of cabergoline based veterinary compositions according to the regimen prescribed in the present invention. Groups of cows at different gestating stages receive the treatment at different doses: • 3 months of gestation (6 animals), dose of 15 mcg/kg—2 injections at an interval of 48 hours • 7 to 8 months of gestation: (5 animals), dose of 15 mcg/kg—2 injections at an interval of 48 hours • 6.5 to 7.5 months of gestation: (11 animals), dose of 25 mcg/kg—2 injections an interval of 48 hours
The formulation described in the Example 1, containing 500 mcg/ml of cabergoline in injectable solution is used in this study.
Regular clinical exams were conducted during a period lasting from 7 days before the treatment to 15 days after the treatment:
Daily general inspection and abortions,
Clinical exam of the genital tract including transrectal palpation and an ultrasound, in order to evaluate the suffering and fetal viability.
Blood samplings are conducted one day before the treatment and 15 days after the treatment to follow the plasmatic concentrations of different hormones and proteins indicating the health of the placenta and fetus, such as progesterone, estrone sulfate and the PAG (Pregnancy Associated Glycoprotein). […]

SMILES: C=CCN1C[C@H](C(=O)N(CCCN(C)C)C(=O)NCC)C[C@@H]2c3cccc4[nH]cc(c34)C[C@H]21 [cabergoline, N-[3-(Dimethylamino)propyl]-N-[(ethylamino)carbonyl]-6-(2-propenyl)-8 g-ergoline-8-carboxamide]
- abortions: do not provoke any abortions
- harmful effect on the gestation, viability and health of the new born calves: neither do they have any harmful effect

Source: patent publication US9744158B2, “Veterinary antiprolactinic composition for ruminants” (CEVA SANTE ANIMALE, priority 2008, dated 2017)
